Measurements taken from patent publication US20220267280A1, “SMALL MOLECULE STIMULATORS OF THE CORE PARTICLE OF THE PROTEASOME” (Purdue Research Foundation, priority 2019, published 2022).
Entries after “also recorded” stand apart in the source; their conditions may differ.

Assays:
20S CP [1] = assay: standard FRET assay with the standard 20S CP; assay type: biochemical; details: for % activity increase (increase in 20S proteasome activity): derivative at 25 μM, in triplicate
Protocol: (§1) Miconazole was discovered as a stimulator of the 20S CP during a screen of the NIH Clinical Collection (NCC), using our previously described FRET assay.^15,21 However, this screen utilized a modulated FRET peptide that substituted an aspartic acid for the phenylalanine. Hydrolysis of the FRET peptide produces a fluorescent signal that can be monitored over time to determine the activity level of the 20S CP. Screening the NCC was performed in 384-well plates on a Tecan plate reader, monitoring the emission wavelength of the FRET peptide over a 1 hr period. Each compound was screened at a final concentration of 25 μM in singlet. A linear regression was performed for the change in fluorescence over time, producing a slope. This value for each compound was then compared to that of a DMSO control (20S CP basal level activity), which was included in triplicate for each plate. Primary hit compounds were determined to be those with a slope 50% greater than that of the DMSO control.
All primary hits were then validated in triplicate, using this reporter and the standard FRET reporter. Following triplicate validation, the hits were purchased from other sources and tested once again for the effect of each on the 20S CP, using the standard FRET assay (FIG. 2A).
Following a mechanistic analysis of miconazole, a dose-response study was performed using the FRET assay and the standard 20S CP.
Each derivative of miconazole is tested at 25 μM in triplicate, using our standard FRET assay. Included in each plate is 25 μM miconazole in triplicate as a positive control. This is also performed to determine how well a derivative compares to the original compound. Derivatives that enhance 20S CP activity are then used for further study.

20S CP [2] = assay: GFP-α-synuclein fusion cell assay, Western blot for GFP; assay type: cell-based; details: for alpha-synuclein degradation (quantitation of gel bands): 25 μM for 16 hrs, duplicate
Source text: In this study, HEK-293T cells are transiently transfected to express a GFP-α-synuclein construct. α-Synuclein is a known substrate of the 20S CP, whereas GFP is too large and well-folded to enter the gate of the 20S CP for degradation. Therefore, 20S CP-mediated hydrolysis of this construct degrades the α-synuclein portion, leaving behind free GFP. […] After this time period, the cells were lysed and analyzed by Western blot for GFP. Because 20S CP-mediated hydrolysis of this fusion protein can only degrade the α-synuclein portion, the Western blot produces two clear bands, corresponding to the full fusion protein (GFP-α-synuclein) and free GFP. Quantitative analysis is performed for each sample, quantifying the relative densities of each band. The ratio of free GFP to the GFP-α-synuclein fusion was calculated. This calculated ratio of the miconazole-treated cell lysates was compared to the control (DMSO) to determine a change in 20S CP-mediated degradation.
We perform similar studies to those described above for each derivative that warrants further evaluation, including: a mechanistic analysis (FRET assay using the immunoproteasome and 26S proteasome), dose-response study to determine the EC50 of each compound, and the GFP-α-synuclein cell assay to examine the effectiveness of the miconazole derivative in cells. For the cell assay, miconazole is included as a positive control.

26S proteasome = assay: FRET assay using the 26S proteasome; assay type: biochemical; details: 25 μM
Protocol: (§2) In order to determine the general mechanism of action of miconazole (i.e. allosteric modulator of a hydrolysis activity or “gate-opener”), a series of FRET assays were performed with 25 μM miconazole, using the immunoproteasome (iCP) and the 26S proteasome. The immunoproteasome contains a high degree of similarity to the standard 20S CP (sCP); however, the catalytic β-subunits have been exchanged, leading to a variation in the hydrolysis activities of this protease compared to the standard 20S CP.^22 The gates of both the immunoproteasome and the 20S CP are identical. The 26S proteasome is the standard 20S CP that has been capped by the 19S regulatory particle, which binds the a-ring of the 20S CP and creates an open-gate conformation.^23 Gate-openers of the 20S CP should still impact the activity of the immunoproteasome; however, because the gate is precluded in the 26S proteasome, this type of stimulator is believed to be ineffective with this isoform of the proteasome Similarly, a stimulator that is able to enhance at least one of the catalytic sites of the 20S CP specifically may be ineffective with the immunoproteasome, as this isoform contains different catalytic subunits than the standard 20S CP. This type of stimulator will still impact the activity of the 26S proteasome, as it contains the standard 20S CP.

20S CP [3] = assay: screen of the NIH Clinical Collection, FRET assay with modulated FRET peptide; assay type: biochemical; details: 25 μM, singlet, 1 hr
Protocol: as §1

immunoproteasome (iCP) = assay: FRET assay using the immunoproteasome; assay type: biochemical; details: 25 μM
Protocol: as §2

| Structure (SMILES) | % activity increase (increase in 20S proteasome activity) (20S CP [1]) [%] | other results |
| --- | --- | --- |
| CC(C)(C)c1ccc(C[n+]2ccn(CC(OCc3ccc(Cl)cc3Cl)c3ccc(Cl)cc3Cl)c2)cc1.[Br-] (stereo not shown) [MDX3] | 0 |  |
| Cc1ccc(COC(Cn2cccc2)c2ccc(Cl)cc2Cl)c(C)c1 (stereo not shown) [MD1] | 0 |  |
| Fc1ccc(COC(Cn2cccc2)c2ccc(Cl)cc2Cl)c(F)c1 (stereo not shown) [MD2] | 0 |  |
| Clc1ccc(C(Cn2cccc2)OCc2ccccc2)c(Cl)c1 (stereo not shown) [MD3] | 0 |  |
| CC(C)(C)c1ccc(COC(Cn2ccnc2)c2ccc(Cl)cc2Cl)cc1 (stereo not shown) [MDX1] | 248 | alpha-synuclein degradation (quantitation of gel bands) (20S CP [2]): increase in alpha-synuclein degradation |
| Clc1ccc(C(Cn2ccnc2)OCc2c(Cl)cccc2Cl)c(Cl)c1 (stereo not shown) [MD6] | 171 |  |
| Clc1ccc(C(Cn2cccc2)OCc2ccc(Br)cc2Br)c(Cl)c1 (stereo not shown) [MD4] | 0 |  |
| Clc1ccc(C(Cn2ccnc2)OCc2ccccc2Cl)c(Cl)c1 (stereo not shown) [MD5] | 122 |  |
| Clc1ccc(COC(Cn2ccnc2)c2ccc(Cl)cc2Cl)c(Cl)c1 (stereo not shown) [miconazole, reference compound] |  | enhancement of degradation of α-synuclein over the DMSO control (ratio of free GFP to GFP-α-synuclein) (20S CP [2]; HEK-293T cells, 25 μM, 24 hr): 200-300%; effect on 26S proteasome activity (26S proteasome): no effect; increase of 20S CP activity (slope vs DMSO control) (20S CP [3]): 299%; effect on standard 20S CP (sCP) activity (20S CP [1]; 25 μM): effective stimulator; also recorded: stimulatory effect; EC50 (20S CP [1]; read-out: EC50 (effective concentration that induces 50% of its maximum stimulatory effect), dose-response, standard 20S CP (sCP)): 20 µM; effect on immunoproteasome (iCP) activity (immunoproteasome (iCP)): effective stimulator; also recorded: stimulatory effect |
| FC(F)(F)c1ccc(COC(Cn2ccnc2)c2ccc(Cl)cc2Cl)cc1 (stereo not shown) [MDX2] | 232 | alpha-synuclein degradation (quantitation of gel bands) (20S CP [2]): increase in alpha-synuclein degradation |
| C#CC[n+]1ccn(CC(OCc2ccc(Cl)cc2Cl)c2ccc(Cl)cc2Cl)c1.[Br-] (stereo not shown) [MD8] | 0 |  |
| Clc1ccc(COC(Cn2ccnc2)c2ccc(Cl)cc2Cl)cc1 (stereo not shown) [MD7] | 0 |  |
